Source: patent publication US20210386709A1, “COMPOSITIONS AND METHODS FOR SUPPRESSING MSUT2” (United States Government As Represented By The Department …, priority 2020, published 2021)
Read-outs that look alike come from different tables or passages of the source. One block for each molecule: values may come before it. {FAM} = fluorescein amidite label

How the values were obtained:
[1] = biological target: T1, MSUT2 ZF (Homo sapiens, UniProt Q6PJT7); assay: Fluorescence polarization assay of FAM-poly(A) RNA:MSUT2 ZF binding; settings: for Ki (nm) for MSUT2 / Ki: calculated by Cheng Prusof equation Ki=(IC50)/[(L/Kd)+1], FP dose response; for Ki: read-out: Ki (nm) for MSUT2
T1 construct: Targeted construct consisted of the c-terminal end (dark blue and amino acids 601-736) of MSUT2; made in house; host or cells: E. coli BL21 (DE3)
T1 sequence (Q6PJT7 601-736): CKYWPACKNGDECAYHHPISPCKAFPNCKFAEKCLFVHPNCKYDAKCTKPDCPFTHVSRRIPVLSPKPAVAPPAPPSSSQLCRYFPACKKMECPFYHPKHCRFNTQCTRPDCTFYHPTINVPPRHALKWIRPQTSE
Description: Fluorescence Polarization Assay. […] 2 μL of compound was transferred for a final concentration of 10 μM. […] Fluorescence polarization was calculated by first subtracting background from a buffer-only control well and then using the equation
Results and Discussion. A high-throughput fluorescence polarization assay for inhibition of poly(A):MSUT2 RNA interaction. […] In order to screen potential inhibitors of MSUT2 RBP and RNA by FP, fluorescent FAM (fluorescein amidite)-labeled poly(A)15 RNA (FAM-RNA) and recombinant MSUT2 ZF (zinc finger) protein expressing constructs were generated (FIG. 7a). […] Inhibition of the interaction results in unbound FAM-RNA tumbling at a relatively rapid rate and emitting non-polarized light (FIG. 7b).
(§1) To determine the concentrations of both MSUT2 ZF protein and FAM-RNA probe useful in the methods described herein, a two dimensional titration of protein and RNA concentrations in 96-well format was performed. […] Next, the binding constant between MSUT2 ZF and FAM-RNA was determined by holding FAM-RNA constant at 10 nM while increasing MSUT2 ZF concentration.
(§2) Identification and validation of MSUT2 inhibitory compounds from NIHCC library. […] IC50 of each of the previous 8 compounds was determined for PABPN1 using fluorescence polarization (FIG. 11), and a specificity ratio determined (Table 3). An Alpha Screen (AS) assay was developed as an orthogonal screen. Briefly, in this screen, biotinylated RNA binds streptavidin-coated donor beads, while GST-MSUT2 ZF binds glutathione-coated acceptor beads. When donor beads and acceptor beads are brought within close proximity of one another, laser excitation leads to fluorophore emission of the acceptor bead via excited singlet oxygen activating chemiluminescers in the acceptor beads. […] Toxicity of these compounds in a HEK cell model was determined using a standard Promega Cell Titer Glo assay.
(§3) Fluorescence Polarization Assay. […] of stock compound was transferred yielding 10 μM final concentration. […] Fluorescence polarization was calculated by first subtracting background from a buffer-only control well and then using the equation

[2] = tested on: HEK-293 cells; assay: Cell viability, Promega Cell Titer Glo
[3] = biological target: T2, PABPN1 (Homo sapiens, UniProt Q86U42); assay: PABPN1 fluorescence polarization counter screen; format: binding; settings: for IC50 / IC50PABPN1: fluorescence polarization counter screen; for IC50: unit inferred, read-out: IC50PABPN1; for IC50PABPN1: unit not given; for PABPN1/MSUT2 specificity ratio: ratio of FP IC50s
T2 construct: made in house; host or cells: E. coli BL21 (DE3)
T2 sequence (Q86U42 1-306): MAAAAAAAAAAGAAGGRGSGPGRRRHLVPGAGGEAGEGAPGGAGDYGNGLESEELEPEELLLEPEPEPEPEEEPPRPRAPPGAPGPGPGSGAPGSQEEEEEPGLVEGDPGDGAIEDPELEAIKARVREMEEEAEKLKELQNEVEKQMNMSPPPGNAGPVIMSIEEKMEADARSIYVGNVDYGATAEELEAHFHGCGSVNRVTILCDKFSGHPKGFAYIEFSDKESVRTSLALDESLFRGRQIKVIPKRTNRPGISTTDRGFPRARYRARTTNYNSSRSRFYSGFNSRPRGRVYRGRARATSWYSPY
Description: A drug repurposing strategy: screening of the NIH Clinical Collection compound library. […] The plan to find suitable lead compounds for drug repurposing began with a screen of the NIH Clinical Collection (NIHCC) library. The NIHCC consists of a diverse array of 700 compounds with historical pharmacological use and well-studied safety profiles. […] An orthogonal poly(A):MSUT2 binding assay allowed the ruling out of assay interference while selectivity against MSUT2 over PABPN1 was determined by a parallel FP assay with PABPN1 as the RBP. […] Thus, the goal was to eliminate compounds interfering with both PABN1 and MSUT2 and focus on compounds truly specific for poly(A):MSUT2 binding.
as §2, §3

[4] = biological target: T3, GST-MSUT2 (Homo sapiens, UniProt Q6PJT7); assay: Alpha Screen assay of biotinylated poly(A) RNA:GST-MSUT2 binding; settings: orthogonal dose-response validation
T3 construct: Targeted construct consisted of the c-terminal end (dark blue and amino acids 601-736) of MSUT2; made in house; host or cells: E. coli BL21 (DE3)
T3 sequence (Q6PJT7 601-736): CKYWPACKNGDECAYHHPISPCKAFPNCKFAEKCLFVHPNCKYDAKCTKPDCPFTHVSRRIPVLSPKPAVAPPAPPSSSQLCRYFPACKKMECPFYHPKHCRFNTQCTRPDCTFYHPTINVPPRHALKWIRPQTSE
Description: Alpha Screen Assay. Samples were set up in 384 well Perkin Elmer white opaque-bottom plates (PE06). A total reaction volume of […] was plated in 384 format using a CyBio Well Vario (6 μL of donor beads (10 μg/mL), 3 μL biotinylated RNA (250 nM), 3 μL GST-MSUT2 protein (250 nM) per well). 50 nL of compounds were transferred to wells via CyBio Vario equipped with Pin Tool. This mixture was incubated at room temperature for 30 minutes away from light. Next 3 μL of acceptor beads (1.25 μg/mL) was added. Plates were incubated at room temperature away from light for 60 minutes and subsequently read on a Perkin Elmer EnVision multimode microplate reader equipped with stackers using a standard 384-well Alpha Assay software protocol.
Results. Alpha Screen design and underlying principle. Alpha Screen technology relies on donor beads, coated with a hydrogel excitable by 680 nm, brought within close proximity to an acceptor bead leading to light emission and detection. In this assay, streptavidin coated donor beads tightly bind to biotinylated-poly(A) RNA while the glutathione-coated acceptor bead binds to GST-tagged MSUT2 protein. […] When this interaction is blocked by an inhibitor, the proximity threshold for donor and acceptor beads is not met, singlet oxygen transference cannot occur, and light is not emitted by the acceptor bead (FIG. 1a).
Identification and validation of MSUT2 inhibitory compounds from NIHCC library. The single-point primary screen was conducted in duplicate and utilized the FP assay conditions determined herein (e.g., 125 nM MSUT2 RNABP and 10 nM FAM-RNA probe) with 10 μM library compounds added in a 96-well format. […] Compound specificity was empirically tested by counter screening against PABPN1, a regulator of the length of mRNA poly(A) tails (Apponi, L. H. et al. Hum Mol Genet 19, 1058-1065, (2010); and Benoit, B. et al. Dev Cell 9, 511-522, (2005)). IC50 of each of the previous 8 compounds was determined for PABPN1 using fluorescence polarization (FIG. 11), and a specificity ratio determined (Table 3). An Alpha Screen (AS) assay was developed as an orthogonal screen. Briefly, in this screen, biotinylated RNA binds streptavidin-coated donor beads, while GST-MSUT2 ZF binds glutathione-coated acceptor beads. […] Toxicity of these compounds in a HEK cell model was determined using a standard Promega Cell Titer Glo assay.
Alpha Screen Assay. […] The plate was then incubated again at room temperature away from light for 60 minutes and subsequently read on a Perkin Elmer EnSight multimode microplate reader using a standard 96-well Alpha Assay protocol.

[5] = biological target: T4, MSUT2 (Homo sapiens, UniProt Q6PJT7); settings: read-out: Kd of MSUT2 for poly(A); cited from earlier work
T4 sequence (Q6PJT7 1-736): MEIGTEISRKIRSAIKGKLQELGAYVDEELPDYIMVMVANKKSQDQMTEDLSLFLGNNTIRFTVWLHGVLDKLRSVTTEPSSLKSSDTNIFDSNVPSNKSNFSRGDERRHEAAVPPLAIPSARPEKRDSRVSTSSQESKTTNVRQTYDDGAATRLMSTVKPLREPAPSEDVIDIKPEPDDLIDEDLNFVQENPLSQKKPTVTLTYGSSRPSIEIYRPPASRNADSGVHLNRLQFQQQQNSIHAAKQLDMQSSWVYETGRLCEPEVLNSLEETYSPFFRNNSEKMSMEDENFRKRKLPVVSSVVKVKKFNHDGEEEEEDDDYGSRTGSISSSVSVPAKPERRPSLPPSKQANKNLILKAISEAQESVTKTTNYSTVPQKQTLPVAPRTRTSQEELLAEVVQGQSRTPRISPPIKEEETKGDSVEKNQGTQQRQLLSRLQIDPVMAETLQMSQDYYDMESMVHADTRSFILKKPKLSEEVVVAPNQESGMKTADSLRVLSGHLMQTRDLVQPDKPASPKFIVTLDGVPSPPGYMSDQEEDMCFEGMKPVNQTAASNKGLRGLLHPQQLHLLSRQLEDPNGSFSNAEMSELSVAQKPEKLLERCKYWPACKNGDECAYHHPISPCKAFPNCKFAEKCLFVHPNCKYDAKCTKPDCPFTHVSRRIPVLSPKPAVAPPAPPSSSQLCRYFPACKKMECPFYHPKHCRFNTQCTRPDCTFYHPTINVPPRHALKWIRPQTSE

[6] = biological target: T5, MSUT2 ZF (ZC3H14 C-terminal CCCH zinc finger domain) (UniProt Q6PJT7 Q6PJT7:601-736); assay: FP; PBS, room temperature, 10 nM FAM-RNA; reported as affinity / binding constant; settings: tags: GST (pGEX-6P1); label: 5' FAM
T5 sequence: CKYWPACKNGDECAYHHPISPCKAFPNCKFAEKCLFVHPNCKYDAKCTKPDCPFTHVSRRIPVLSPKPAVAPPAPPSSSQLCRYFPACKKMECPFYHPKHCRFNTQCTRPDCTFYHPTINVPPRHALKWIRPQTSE
Description: as §1, §3

[7] = biological target: T5, MSUT2 ZF (ZC3H14 C-terminal CCCH zinc …); assay: competition; FP competition, 10 nM FAM-RNA and 125 nM MSUT2 ZF, PBS; settings: tags: GST (pGEX-6P1)
Description: as §1, §3

[8] = biological target: T6, PABPN1 (UniProt Q86U42 Q86U42:1-306); assay: Alpha Screen counter-screen; settings: tags: GST (pGEX-6P1); label: 5' biotin
T6 sequence: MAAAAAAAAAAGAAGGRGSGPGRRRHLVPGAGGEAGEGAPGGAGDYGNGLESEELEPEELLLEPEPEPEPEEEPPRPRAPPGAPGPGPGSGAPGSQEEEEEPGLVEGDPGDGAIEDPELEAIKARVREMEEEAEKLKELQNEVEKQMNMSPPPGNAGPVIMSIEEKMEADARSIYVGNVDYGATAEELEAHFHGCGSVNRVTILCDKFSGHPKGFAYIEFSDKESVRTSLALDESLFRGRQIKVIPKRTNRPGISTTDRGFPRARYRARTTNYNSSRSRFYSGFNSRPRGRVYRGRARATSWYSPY

- Ki (nm) for MSUT2 [1]: failed dose
Molecule: CNCC[C@@H](Oc1ccccc1C)c1ccccc1 [Atomoxetine]

Molecule: O=C(O)C1=CC(=C(c2ccc(O)c(C(=O)O)c2)c2ccc(O)c(C(=O)O)c2)C=CC1=O [Aurin tricarboxylic acid]
- toxicity (effect on cell viability) ([2]; HEK-293, 72 hours, indicated concentrations): relatively high toxicity at high concentrations

- Ki (nm) for MSUT2 [1]: failed DR
Molecule: O=C(N[C@H](CO)[C@H](O)c1ccc([N+](=O)[O-])cc1)C(Cl)Cl [Chloramphenicol]

- IC50 [3]: 6570 nM
Molecule: CC(C(=O)O)c1ccc(-c2ccccc2)c(F)c1 (stereo not drawn) [Flurbiprofen]

- Ki [1]: 534 nM
- IC50 ([1]; read-out: IC50MSUT2): 541 nM
- IC50PABPN1 [3]: None
Molecule: CN1C2CCCC1CC(NC(=O)c1nn(C)c3ccccc13)C2 (stereo not drawn) [Granisetron]

- Ki [1]: 573 nM
- IC50 [3]: 23700 nM
- PABPN1/MSUT2 specificity ratio [3]: 40.7931
Molecule: OCCOCCN1CCN(C(c2ccccc2)c2ccc(Cl)cc2)CC1 (stereo not drawn) [Hydroxyzine]

- Ki [1]: 916 nM
- IC50 ([1]; read-out: IC50MSUT2): 927 nM
- IC50 [3]: 28900 nM
Molecule: CC(C)(C)NC(=O)[C@@H]1CN(Cc2cccnc2)CCN1C[C@@H](O)C[C@@H](Cc1ccccc1)C(=O)N[C@H]1c2ccccc2C[C@H]1O [Indinavir]

Molecule: CCCCN1CCCC1CNC(=O)c1cc(C#N)c2ccccc2c1OC (stereo not drawn) [Nafadotride]
- Ki [1]: 867 nM
- IC50 [3]: 67700 nM
- PABPN1/MSUT2 specificity ratio [3]: 77.11

- Ki [1]: 188 nM
- inhibition activity by Alpha Screen (AS) [4]: dose-dependent inhibition activity
- IC50PABPN1 [3]: None
Molecule: CC(C)(C)NC(=O)[C@@H]1C[C@@H]2CCCC[C@@H]2CN1C[C@@H](O)[C@H](Cc1ccccc1)NC(=O)[C@H](CC(N)=O)NC(=O)c1ccc2ccccc2n1 [Saquinavir]
- cell viability ([2]; HEK, highest tested dose of 4004, normalized to 2% DMSO vehicle): 65%

Molecule: C[C@H]1CCC[C@H](O)CCCCCc2cc(O)cc(O)c2C(=O)O1 [Zeranol]
- Ki (nm) for MSUT2 [1]: failed DR

Molecule: FAM-RNA: fluorescent FAM (fluorescein amidite)-labeled poly(A)15 RNA probe (SEQ ID NO: 3) (AAAAAAAAAAAAAAA; RNA, 5' {FAM}, backbone not given here)
- Kd ([1]; saturation assay, FAM-RNA constant at 10 nM, read-out: affinity for FAM-RNA:MSUT2 ZF interaction): 810 nM

Molecule: poly(A): poly(A) RNA, natural ligand of MSUT2 (AAAAAAAAAAAAAAA; RNA, backbone not given here)
- Kd [5]: 60 ± 15 nM

Molecule: unlabeled poly(A)15 RNA: unlabeled poly(A) RNA 5′-AAAAAAAAAAAAAAA-3′ (SEQ ID NO: 2), positive control for inhibition (RNA, backbone not given here)
- IC50 ([1]; 10 nM FAM-RNA:125 nM MSUT2 ZF, positive control, read-out: IC50 in FP competition assay): 320 nM

Molecule: AAAAAAAAAAAAAAA (ssRNA) [FAM-poly(A)15]
- Kd [6]: 810 nM

Molecule: AAAAAAAAAAAAAAA (ssRNA) [poly(A)15 unlabeled]
- IC50 [7]: 320 nM

Molecule: AAAAAAAAAAAAAAA (ssRNA) [biotin-poly(A)15]
- binding result [8]: binds
